The target of experiment [1] is Recombinant wild type LRRK2 protein (Homo sapiens (Human), UniProt Q5S007). The experiment is described as follows: LRRK2 kinase activity, LanthaScreen TR-FRET assay (wild type). Format: biochemical. As to conditions: LRRKtide 400 nM, 25 μM ATP, 60 min; read-out: LRRK2 WT IC50. In outline: (§1)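 Recombinant human wild-type or G2019S LRRK2 phosphorylated fluorescein-labelled LRRKtide (ERM-based) with ATP and serially diluted compound for 60 min at room temperature.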
For orientation: TR-FRET usually uses a lanthanide donor and a delayed reading to cut background.

For experiment [2], the target named is Recombinant G2019S-LRRK2 protein (Homo sapiens (Human), UniProt Q5S007, G2019S). Nature of the experiment: LRRK2 kinase activity, LanthaScreen TR-FRET assay (G2019S). The experiment is classed as biochemical. As to conditions: LRRKtide 400 nM, 25 μM ATP, 60 min. In outline: as §1

In general, IC50 refers to the point on the concentration scale where inhibition reaches its midpoint.

Chain of Recombinant G2019S-LRRK2 protein (Q5S007 whole entry G2019S): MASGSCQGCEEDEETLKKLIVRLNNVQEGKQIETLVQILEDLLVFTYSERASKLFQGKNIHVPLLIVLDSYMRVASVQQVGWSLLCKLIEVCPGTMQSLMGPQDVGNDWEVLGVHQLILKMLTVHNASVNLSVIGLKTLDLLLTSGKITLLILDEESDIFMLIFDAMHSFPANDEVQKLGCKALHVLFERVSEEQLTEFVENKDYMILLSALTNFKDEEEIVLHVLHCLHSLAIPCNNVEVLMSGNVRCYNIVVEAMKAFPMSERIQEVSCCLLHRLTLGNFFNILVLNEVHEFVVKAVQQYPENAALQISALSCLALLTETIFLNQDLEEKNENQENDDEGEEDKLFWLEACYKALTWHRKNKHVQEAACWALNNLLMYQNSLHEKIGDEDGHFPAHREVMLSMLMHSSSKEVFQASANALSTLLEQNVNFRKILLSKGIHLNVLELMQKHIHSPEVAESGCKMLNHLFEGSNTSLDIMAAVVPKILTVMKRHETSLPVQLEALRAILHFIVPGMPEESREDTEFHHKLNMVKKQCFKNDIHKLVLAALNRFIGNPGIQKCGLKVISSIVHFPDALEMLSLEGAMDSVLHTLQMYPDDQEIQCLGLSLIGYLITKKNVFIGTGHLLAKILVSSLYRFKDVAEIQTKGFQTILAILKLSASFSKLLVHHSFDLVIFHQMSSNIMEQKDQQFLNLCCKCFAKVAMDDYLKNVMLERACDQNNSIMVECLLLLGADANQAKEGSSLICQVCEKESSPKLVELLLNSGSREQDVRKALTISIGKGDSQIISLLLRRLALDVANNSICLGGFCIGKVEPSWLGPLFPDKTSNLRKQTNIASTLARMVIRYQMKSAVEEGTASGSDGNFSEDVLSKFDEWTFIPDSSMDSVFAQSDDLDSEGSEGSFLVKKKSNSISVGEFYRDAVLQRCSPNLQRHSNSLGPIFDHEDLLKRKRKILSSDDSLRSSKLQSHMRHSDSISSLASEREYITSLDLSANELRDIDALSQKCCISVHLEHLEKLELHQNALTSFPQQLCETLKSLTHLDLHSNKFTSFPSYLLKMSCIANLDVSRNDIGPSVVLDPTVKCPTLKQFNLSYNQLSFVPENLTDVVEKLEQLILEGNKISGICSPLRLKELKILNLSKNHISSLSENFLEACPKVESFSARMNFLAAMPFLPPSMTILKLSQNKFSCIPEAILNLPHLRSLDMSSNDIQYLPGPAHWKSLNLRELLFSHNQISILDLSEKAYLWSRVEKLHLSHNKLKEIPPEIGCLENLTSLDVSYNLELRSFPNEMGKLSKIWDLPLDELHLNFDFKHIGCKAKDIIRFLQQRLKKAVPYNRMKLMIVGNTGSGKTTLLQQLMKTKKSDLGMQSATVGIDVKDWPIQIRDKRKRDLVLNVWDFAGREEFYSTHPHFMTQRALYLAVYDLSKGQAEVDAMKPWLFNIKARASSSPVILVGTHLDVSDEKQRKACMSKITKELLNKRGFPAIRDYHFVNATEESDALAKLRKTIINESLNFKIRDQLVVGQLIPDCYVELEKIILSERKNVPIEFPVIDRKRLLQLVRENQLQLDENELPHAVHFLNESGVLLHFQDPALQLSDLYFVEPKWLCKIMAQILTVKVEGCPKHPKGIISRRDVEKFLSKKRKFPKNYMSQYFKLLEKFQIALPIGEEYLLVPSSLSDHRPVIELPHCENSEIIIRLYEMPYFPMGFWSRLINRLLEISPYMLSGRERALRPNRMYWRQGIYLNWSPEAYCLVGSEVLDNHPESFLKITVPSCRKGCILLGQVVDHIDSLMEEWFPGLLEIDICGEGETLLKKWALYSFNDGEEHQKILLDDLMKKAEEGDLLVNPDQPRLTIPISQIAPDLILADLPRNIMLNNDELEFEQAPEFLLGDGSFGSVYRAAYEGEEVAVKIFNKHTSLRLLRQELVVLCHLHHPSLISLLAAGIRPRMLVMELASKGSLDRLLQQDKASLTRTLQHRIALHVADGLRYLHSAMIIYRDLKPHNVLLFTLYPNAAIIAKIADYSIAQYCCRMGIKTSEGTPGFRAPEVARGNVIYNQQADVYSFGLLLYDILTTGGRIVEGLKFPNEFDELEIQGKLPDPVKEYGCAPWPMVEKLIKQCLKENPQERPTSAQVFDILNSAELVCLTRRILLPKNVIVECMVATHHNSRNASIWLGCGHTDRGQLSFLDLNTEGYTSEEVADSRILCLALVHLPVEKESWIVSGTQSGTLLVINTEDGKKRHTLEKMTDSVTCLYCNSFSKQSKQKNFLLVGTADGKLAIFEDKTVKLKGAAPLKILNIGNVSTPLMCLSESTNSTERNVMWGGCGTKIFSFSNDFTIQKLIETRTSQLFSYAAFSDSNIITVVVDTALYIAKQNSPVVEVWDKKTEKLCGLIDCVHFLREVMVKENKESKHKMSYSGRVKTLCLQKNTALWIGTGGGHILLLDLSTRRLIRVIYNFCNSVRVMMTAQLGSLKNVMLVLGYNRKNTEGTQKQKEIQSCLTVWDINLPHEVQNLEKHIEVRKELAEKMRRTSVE
Chain of Recombinant wild type LRRK2 protein (Q5S007 whole entry): as the sequence (Q5S007 whole entry G2019S) above, with S2019G counted along it

Turning to `Cc1ncc(C#N)nc1C(=O)Nc1ccc2[nH]nc(-c3ccoc3)c2c1` [Example 147, 6-Cyano-N-(3-(furan-3-yl)-1H-indazol-5-yl)-3-methylpyrazine-2-carboxamide], the IC50 in experiment [1] and in experiment [2] was below 100 nM throughout.

Turning to `Cc1ccc(C#N)nc1C(=O)Nc1ccc2[nH]nc(-c3ccoc3)c2c1` [Example 148, 6-Cyano-N-(3-(furan-3-yl)-1H-indazol-5-yl)-3-methylpicolinamide], the IC50 in experiment [1] and in experiment [2] was below 100 nM throughout.

Consider `CCc1c(C#N)ccnc1C(=O)Nc1ccc2[nH]nc(-c3ccoc3)c2c1` [Example 149, 4-Cyano-3-ethyl-N-(3-(furan-3-yl)-1H-indazol-5-yl)picolinamide], for which the IC50 in experiment [1] was 100 to 1000 nM; in experiment [2], below 100 nM.

As for `C#Cc1cc(C#N)cnc1C(=O)Nc1ccc2[nH]nc(-c3ccoc3)c2c1` [Example 150], the IC50 in experiment [1] and in experiment [2] was 100 to 1000 nM in each case.

As for `Cc1cc(C#N)cnc1C(=O)Nc1ccc2[nH]nc(-c3ccc(=O)n(C)c3)c2c1` [Example 151, 5-Cyano-3-methyl-N-(3-(1-methyl-6-oxo-1,6-dihydropyridin-3-yl)-1H-indazol-5-yl)picolinamide], the figures for the IC50 in experiment [1] and in experiment [2] were 100 to 1000 nM and below 100 nM, respectively.

In the case of `Cc1cc(C#N)cnc1C(=O)Nc1ccc2[nH]nc(-c3ccn(C)c(=O)c3)c2c1` [Example 152, 5-cyano-3-methyl-N-(3-(1-methyl-2-oxo-1,2-dihydropyridin-4-yl)-1H-indazol-5-yl)picolinamide], the IC50 in experiment [1] lay in the range of 1000 to 10000 nM; in experiment [2] it was 100 to 1000 nM.

For `Cc1cc(C#N)cnc1C(=O)Nc1ccc2[nH]nc(-c3ccn(C)n3)c2c1` [Example 153, 5-Cyano-3-methyl-N-(3-(1-methyl-1H-pyrazol-3-yl)-1H-indazol-5-yl)picolinamide], the IC50 in experiment [1] lay within 1000 to 10000 nM; in experiment [2] it was 100 to 1000 nM.

With `N#Cc1cnc(C(=O)Nc2ccc3[nH]nc(-c4ccoc4)c3c2)c(O)c1` [Example 154, 5-Cyano-N-(3-(furan-3-yl)-1H-indazol-5-yl)-3-hydroxypicolinamide], the results for the IC50 in experiment [1] and in experiment [2] were 100 to 1000 nM and below 100 nM, respectively.

Take `Cc1cc(C#N)cnc1C(=O)Nc1cc2c(-c3ccoc3)n[nH]c2cn1` [Example 155]: the half-inhibitory concentration (IC50) was 1000 to 10000 nM in experiment [1] and below 100 nM in experiment [2].

Take `Cc1cc(C#N)cnc1C(=O)Nc1ccc2[nH]nc(-c3cscn3)c2c1` [Example 156, 5-Cyano-3-methyl-N-(3-(thiazol-4-yl)-1H-indazol-5-yl)picolinamide]: the IC50 in experiment [1] and in experiment [2] was 100 to 1000 nM in each case.

Regarding `Cc1c(C#N)cnc(C(=O)Nc2ccc3[nH]nc(-c4cnn(C(F)F)c4)c3c2)c1C` [Example 157, 5-Cyano-N-(3-(1-(difluoromethyl)-1H-pyrazol-4-yl)-1H-indazol-5-yl)-3,4-dimethylpicolinamide], the IC50 in experiment [1] and in experiment [2] was below 100 nM each time.

`Cc1c(C#N)cnc(C(=O)Nc2ccc3[nH]nc(-c4cnco4)c3c2)c1C` [Example 158, 5-Cyano-3,4-dimethyl-N-(3-(oxazol-5-yl)-1H-indazol-5-yl)picolinamide]: the IC50 in experiment [1] and in experiment [2] was below 100 nM throughout.

For `COc1cc(-c2n[nH]c3ccc(NC(=O)c4ncc(C#N)c(C)c4C)cc23)ccn1` [Example 159, 5-Cyano-N-(3-(2-methoxypyridin-4-yl)-1H-indazol-5-yl)-3,4-dimethylpicolinamide], the IC50 in experiment [1] and in experiment [2] was below 100 nM throughout.

Regarding `Cc1cc(C#N)cnc1C(=O)Nc1ccc2[nH]nc(-c3cnsc3)c2c1` [Example 160, 5-Cyano-N-(3-(isothiazol-4-yl)-1H-indazol-5-yl)-3-methylpicolinamide], the IC50 in experiment [1] and in experiment [2] was below 100 nM throughout.

As to `Cc1cc(C#N)cnc1C(=O)Nc1ncc2[nH]nc(-c3ccoc3)c2n1` [Example 161, 5-Cyano-N-(3-(furan-3-yl)-1H-pyrazolo[4,3-d]pyrimidin-5-yl)-3-methylpicolinamide], the IC50 was in the range of 1000 to 10000 nM in experiment [1] and 100 to 1000 nM in experiment [2].

Source of the values: patent publication US11427558B1, “Indazoles and azaindazoles as LRRK2 inhibitors” (ESCAPE Bio, Inc., priority 2019, dated 2022).
